Experimental data published in Sander's compilation of Henry's law constants (doi:10.1021/je970046g).

Assay: Henry solubility constant Hcp at 293 K (mol/(m3 Pa))
Details: reference: Hovorka and Dohnal (1997)

SMILES | Henry solubility constant Hcp at 293 K
ClCCl [dichloromethane] | 0.0051
ClC=C(Cl)Cl [trichloroethene] | 0.0013
CC(Cl)CCl (centres undefined) [1,2-dichloropropane] | 0.0046
ClC(Cl)C(Cl)Cl [1,1,2,2-tetrachloroethane] | 0.03
Clc1ccccc1 [chlorobenzene] | 0.0035
Clc1cccc(Cl)c1 [1,3-dichlorobenzene] | 0.0047
ClCC(Cl)Cl [1,1,2-trichloroethane] | 0.015
ClCc1ccccc1 [(chloromethyl)-benzene] | 0.028
Clc1ccc(Cl)cc1 [1,4-dichlorobenzene] | 0.0054
Brc1ccccc1 [bromobenzene] | 0.0061
ClC(Cl)=C(Cl)Cl [tetrachloroethene] | 0.00084
CC(Cl)(Cl)Cl [1,1,1-trichloroethane] | 0.00079
BrCBr [dibromomethane] | 0.015
BrC(Br)Br [tribromomethane] | 0.023
